Measurements: patent publication US20210095293A1, “METHODS OF TREATING CANCERS WITH GPR132 INHIBITORS” (The Board of Regents of the University of Texas System, priority 2016, published 2021)
Structures can show the parent of a compound that is named as a salt.

Experiments:
Assay type in all cases: cell-based, mouse
Gpr132 = test: calcium mobilization assay in BMDMs; settings: WT or Gpr132-KO BMDMs stimulated with 25 mM
Experimental: FIG. 27. […] WT or Gpr132-KO BMDMs were stimulated with 25 mM lactate (Left) or HCl (Right) (n=3).
To determine whether Gpr132 is required for lactate signaling in macrophages, a calcium mobilization assay was performed. […] First, lactate levels in the CM of distinct cancer cell lines were measured using a Vitros 250 chemistry analyzer. […] Second, the effects of blocking lactate production from EO771 and 4T1.2 cells by oxamic acid, an inhibitor of lactate dehydrogenase was tested.

[1] = test system: bone marrow derived macrophages (BMDMs); test: macrophage M2-like morphology (elongation); settings: cancer cells treated with oxamic acid 90 mM for 3 days before CM harvest
Source text: FIGS. 9A-9D. Tumor-derived factors activate M2-like macrophages via Gpr132. (FIG. 9A) The pH values of conditioned media (CM) from cancer cells or macrophages (n=5-8); *p<0.05, ****p<0.001 compared with RAW 264.7 macrophage CM. (FIG. 9B) Western blot for CD206 and Gpr132 in RAW 264.7 macrophages after treatment with indicated cancer cell CM for 24 hrs. Actin was used as a loading control. The CD206/actin or Gpr132/actin ratio was quantified and shown as fold changes compared to control (n=3); *p<0.05, ***p<0.005 compared with control. (FIG. 9C) Flow cytometry analysis of Gpr132 and CD206 in BMDMs with or without EO771 CM treatment. The experiments were repeated twice and the representative results are shown. (FIG. 9D) Immunofluorescence staining for CD11b in WT and Gpr132-KO BMDMs after differentiation in the absence or presence of 30% EO771 CM or 4T1.2 CM for 7 days. Elongated macrophage morphology indicates a M2-like phenotype. Nuclei were stained with DAPI. Scale bar, 25 μm. WT, wild-type; Gpr132-KO, Gpr132 knockout.
FIGS. 10A-10F. […] LC-MS was used to quantify lactate in the eluent of Gpr132 co-IP. (Left) Representative LC-MS chromatograms; (Right) Quantification of relative lactate binding (n=3). ****p<0.001 compared with WT. […] CD206/actin ratio was quantified and shown as fold changes compared to control (n=3-4); *p<0.05 compared with WT control. […]

[2] = test system: breast cancer cells (4T1.2, EO771); test: Boyden chamber assay, cancer cell migration; settings: oxamic acid 90 mM pre-treatment; WT macrophages
Experimental: (§1) FIGS. 11A-11C. Lactate-activated macrophage promotes cancer cell adhesion, migration and invasion via Gpr132. (FIG. 11A) Adherence assays. 4T1.2 cells were suspended in fibronectin ([…]) pre-coated plates with CM from spleen-derived macrophages (mf) that were treated with 4T1.2 CM or lactate (5 mM) with or without Gpr132 antibody (6 mg/ml) or normal IgG (6 mg/ml) for 10 min. The adhered cells were stained with crystal violet, dissolved in 1% Triton X-100 and measured by OD590. (FIGS. 11B-11C) Boyden chamber assay of cancer cell migration and invasion. 4T1.2 cells (B) or EO771 cells (FIG. 11C) were plated on the upper chamber inserts, with untreated (Control), 4T1.2 CM-activated or lactate-activated spleen-derived WT or Gpr132-KO macrophages plated in the lower chambers. For invasion assay, the inserts were pre-coated with 60 μl matrigel. After migration for 6 hrs (FIG. 11B) or invasion for 24 hrs (FIG. 11C), the migrated or invaded cells were stained with crystal violet and counted as cells per field of view under microscope (n=3-4); For (FIG. 11C), the first bar of each data set of the bar graphs represents the control mf, and the second bar represents Gpr132KO; *p<0.05; **p<0.01; ***p<0.005; ****p<0.001. Scale bar, 500 μm.
(§2) FIGS. 23A-23B. Cancer cell-derived lactate activates macrophages to promote cancer cell migration and invasion via Gpr132. (FIGS. 23A-23B) Boyden chamber assay. EO771 or 4T1.2 cells were cultured in the presence or absence of oxamic acid (90 mM) for 3 days. CM was harvested after the cells were cultured for another 24 hrs without oxamic acid. As a rescue, CM of oxamic acid-treated EO771 or 4T1.2 cells was supplemented with exogenous lactate. […] After migration for 6 hrs (FIG. 23A) or invasion for 24 hrs (FIG. 23B), the migrated or invaded cells were stained with crystal violet and counted as cells per field of view under microscope (n=3-4); for (FIG. 23A), the bars in each data set of the bar graph represent, from left to right, control, EO771, Oxamic acid, and Oxamic acid+Lactate; for (FIG. 23B), the bars in each data set of the bar graph represent, from left to right, control, 4T1.2CM, Oxamic acid, and Oxamic acid+Lactate; *p<0.05; ****p<0.001. […]
Migration or invasion of breast cancer cells was examined using 24-well Boyden chambers (Corning, Corning, N.Y.) with transwell inserts of […] pore size, coated without (for migration) or with matrigel (for invasion) as previously reported. […] The migrated or invaded cells were fixed with methanol and stained with crystal violet (0.05%, sigma), and then counted as cells per field of view under microscope or measured as OD570 after crystal violet was dissolved.

[3] = test system: breast cancer cells (EO771, 4T1.2); test: Boyden chamber assay, cancer cell invasion (matrigel); settings: oxamic acid 90 mM pre-treatment; WT macrophages
Experimental: as §1
as §2, with “acid.” for “acid. As a rescue, CM of oxamic acid-treated EO771 or 4T1.2 cells was supplemented with exogenous lactate.”

EO771 and 4T1.2 cells = test: lactate and pH in cancer cell conditioned media; settings: oxamic acid 90 mM for 3 days, CM after another 24 hrs
Experimental: FIGS. 18A-18E. Lactate secreted by EO771 and 4T1.2 cells is responsible for the low pH in their CM. (FIG. 18A) Lactate levels in the conditional media (CM) from various cancer cells (n=3); *p<0.05, ****p<0.001 compared with EO771 CM; #### p<0.001 compared with 4T1.2 CM. (FIG. 18B) Lactate levels in EO771 CM at the indicated time point of culture (n=3). (FIG. 18C) Lactate levels in the whole CM, <3 kDa and >3 kDa fractions of CM from 24 h EO771 cell cultures (n=3). (FIGS. 18D-18E) EO771 and 4T1.2 cells were treated with or without oxamic acid (90 mM) for 3 days. CM was harvested after the cells were cultured for another 24 hrs without oxamic acid before lactate (FIG. 18D) and pH (FIG. 18E) quantification (n=3). **p<0.01, ***p<0.005, ****p<0.001.
RAW264.7, EO771, 4T1.2, PY8119, PY230, SCP-4, SCP-6, SCP-28, MDA-1883, MDA-2287 and B16F10 cell lines were cultured in culture media containing 10% FBS (Sigma) and 1:100 antibiotic-antimycotic (Gibco). Conditioned media were obtained from serum-free media after culturing cells for 24 hrs or as indicated. Bone marrow-derived macrophages (BMDMs) and spleen-derived macrophages from WT and Gpr132-KO mice were cultured as previously described. Lactate in the conditioned media was quantified using a Vitros 250 chemistry analyzer at the UT Southwestern Metabolic Phenotyping Core.

macrophages = test: M2 marker expression in macrophages (Western blot, RT-qPCR, flow cytometry); settings: IL-4 10 ng/ml for 16 hrs, spleen macrophages
Experimental: After blocking with 10% BSA for 10 min, cells were incubated with anti-CD206 (Rabbit polyclonal, Abcam) or anti-Gpr132 (Rabbit polyclonal, Sigma) antibodies (1:100) for 30 min at 4° C., washed with cold PBS, and then incubated with FITC-conjugated secondary antibodies (1:100) for 30 min at 4° C. After washing twice using cold PBS, cells were analyzed by flow cytometer (Becton Dickinson). RNA was isolated from cells or mouse tissues using Trizol (Invitrogen) following the manufacturer's instructions. RNA (200-500 ng) was first treated with RNase-free DNase I using the DNA-free kit (Ambion) to remove all genomic DNA, and then reverse-transcribed into cDNA using an ABI High Capacity cDNA RT Kit (Invitrogen). The cDNA was analyzed using real-time quantitative PCR (SYBR Green, Invitrogen) with an Applied Biosystems 7900 Sequence Detection System. Each reaction was performed in triplicate in a 384-well format. The expression of each gene was normalized by that of mouse ribosomal protein L19. Samples of 20 μg protein were applied to SDS polyacrylamide gels. After protein transfer, membranes were incubated with antibodies for […] (rabbit polyclonal, Santa Cruz Biotechnology), CD206, Gpr132, or β-actin (mouse monoclonal, Sigma) (1:1000) overnight at 4° C. Membranes were washed, and then incubated with HRP-conjugated secondary antibodies (1:1000) for 1 hr at room temperature before signal detection by chemiluminescence (Pierce). Densitometric quantification was performed by Image-Pro Plus 6.0 software (Media Cybernetics). PathScan Akt Signaling Antibody Array (Cell Signaling) was incubated with macrophage proteins and analyzed following kit instructions.

For `Cl` [hydrochloric acid (HCl), hydrochloric acid], the “effect of Gpr132 deletion on triggered calcium mobilization” value (Gpr132) was “not”.

With `NC(=O)C(=O)O` [oxamic acid] the “ability of EO771 or 4T1.2 CM to induce M2-like morphology in WT BMDMs” value [1] was “completely abolished”, the “effects of CM-activated WT macrophages on cancer cell migration after pre-treatment of cancer cells” value [2] was “abolished” and the “effects of CM-activated WT macrophages on cancer cell invasion after pre-treatment of cancer cells” value [3] was “abolished”. The “lactate in the CM” value (EO771 and 4T1.2 cells) was “depleted”.

B1: IL-4: standard T helper 2 cytokine used to trigger macrophage M2 activation (protein, UniProt P05112 25-153, looked up)
Interleukin-4: HKCDITLQEIIKTLNSLTEQKTLCTELTVTDIFAASKNTTEKETFCRAATVLRQFYSHHEKDTRCLGATAQQFHRHKQLIRFLKRLDRNLWGLAGLNSCPVKEANQSTLENFLERLKTIMREKYSKCSS
In the case of B1, the “induction of M2 markers (Arg-1, CCL17, CCL22, PPAR-γ, YM-1, YM-2), WT vs Gpr132-KO macrophages” value (macrophages) is reported as “equally well”.
